Structures can show the parent of a compound that is named as a salt.

Holding throughout (format): physicochemical
Data set [1] can be described thus: Fluorescence lifetime, time-correlated single photon counting (excitation 500 nm, detection 550 nm). The note with it: excited at 500 nm, detection at 550 nm. The procedure: FIG. 2 is a plot showing the fluorescence lifetimes of certain dyes according to the invention. Fluorescence lifetimes of a range of dyes were determined by a time-correlated single photon counting technique using an Edinburgh Instruments FL900 CDT Time-Resolved Fluorometer. Samples were excited at 500 nm using a hydrogen-filled flashlamp. Detection was at 550 nm.

The nature of data set [2]: Fluorescence of the dinitro dye in solvents. The settings on record: in DMF, DMSO and methanol.
Data set [3] is described as follows: Fluorescence lifetimes of dye and its ovalbumin conjugate in PBS. Here is the method: The fluorescence lifetimes of 6-{7,14-dioxo-2,9-disulpho-7,14-dihydro-12H-quino[2,3-b]acridin-5-yl}hexanoic acid and its conjugate with ovalbumin (Conjugate A) was determined in PBS.

In data set [1] (solvent CH2Cl2/MeOH), `CCCCCCn1c2ccc(Br)cc2c(=O)c2cc3c(cc21)c(=O)c1cc(Br)ccc1n3CCCCCC` [2,9-Dibromo-5,12-di-n-hexylquinacridone, 2,9-dibromo-5,12-dihexylquinacridone] displayed a Lifetime of 16.9 nsec.

Regarding `O=c1c2cc(S(=O)(=O)O)ccc2[nH]c2cc3c(=O)c4cc(S(=O)(=O)O)ccc4[nH]c3cc12` [2,9-Quinacridone disulphonic acid, Quinacridone-2,9-disulphonic acid, (di-potassium salt)], in data set [1] (solvent water), the Lifetime worked out at 20.6 nsec. For `CCCCCCn1c2ccccc2c(=O)c2cc3c(cc21)c(=O)c1cc(Br)ccc1n3CCCCCC` [2-Bromo-5,12-di-n-hexylquinacridone, 2-Bromo-5,12-dihexylquinacridone], in data set [1] (solvent CH2Cl2/MeOH), the Lifetime came to 20.4 nsec. `CCCCCCn1c2ccccc2c(=O)c2cc3c(cc21)c(=O)c1ccccc1n3CCCCCC` [5,12-Di-n-hexylquinacridone, 5,12-Dihexylquinacridone] came in with a Lifetime in data set [1] (solvent CH2Cl2/MeOH) of 26.5 nsec. In turn, `CCOC(=O)CCCCCn1c2ccc(Cl)cc2c(=O)c2cc3c(cc21)c(=O)c1cc(Cl)ccc1n3CCCCCC(=O)OCC` [6-{2,9-Dichloro-12-(5-carboxypentyl)-7,14-dioxo-7,14-dihydro-12H-quino[2,3-b]acridin-5-yl}hexanoic acid, diethyl ester] returned a Lifetime in data set [1] (solvent MeOH) of 22.3 nsec. As for `CCOC(=O)CCCCCn1c2ccc(F)cc2c(=O)c2cc3c(cc21)c(=O)c1cc(F)ccc1n3CCCCCC(=O)OCC` [6-{2,9-Difluoro-12-(5-carboxypentyl)-7,14-dioxo-7,14-dihydro-12H-quino[2,3-b]acridin-5-yl}hexanoic acid, diethyl ester], the Lifetime in data set [1] (solvent MeOH) was found to be 21.4 nsec. As for `CCOC(=O)CCCCCn1c2ccc(OC)cc2c(=O)c2cc3c(cc21)c(=O)c1cc(OC)ccc1n3CCCCCC(=O)OCC` [6-{2,9-Dimethoxy-12-(5-carboxypentyl)-7,14-dioxo-7,14-dihydro-12H-quino[2,3-b]acridin-5-yl}hexanoic acid, diethyl ester], the Lifetime in data set [1] (solvent EtOH) is on record as 14.0 nsec. Turning to `CCOC(=O)CCCCCn1c2ccc([N+](=O)[O-])cc2c(=O)c2cc3c(cc21)c(=O)c1cc([N+](=O)[O-])ccc1n3CCCCCC(=O)OCC` [6-{2,9-Dinitro-12-(5-carboxypentyl)-7,14-dioxo-7,14-dihydro-12H-quino[2,3-b]acridin-5-yl}hexanoic acid, diethyl ester], the Lifetime in data set [1] (solvent CH2Cl2) was determined as 17.0 nsec. Besides, the Fluorescence result in data set [2] is on record as “very weak or is non-fluorescent”. The compound `CCOC(=O)CCCCCn1c2ccc(Br)cc2c(=O)c2cc3c(cc21)c(=O)c1cc(Br)ccc1n3CCCCCC(=O)OCC` [6-{2,9-dibromo-12-(5-carboxypentyl)-7,14-dioxo-7,14-dihydro-12H-quino[2,3-b]acridin-5-yl}hexanoic acid, diethyl ester] showed a Lifetime in data set [1] (solvent water) of 18.0 nsec. For `CCOC(=O)CCCCCn1c2ccc(C)cc2c(=O)c2cc3c(cc21)c(=O)c1cc(C)ccc1n3CCCCCC(=O)OCC` [6-{2,9-dimethyl-12-(5-carboxypentyl)-7,14-dioxo-7,14-dihydro-12H-quino[2,3-b]acridin-5-yl}hexanoic acid, diethyl ester], in data set [1] (solvent MeOH), the Lifetime came out at 21.9 nsec. As for `O=C(O)CCCCCn1c2ccc(S(=O)(=O)O)cc2c(=O)c2cc3[nH]c4ccc(S(=O)(=O)O)cc4c(=O)c3cc21` [6-{7,14-Dioxo-2,9-disulpho-7,14-dihydro-12H-quino[2,3-b]acridin-5-yl}hexanoic acid], the Lifetime in data set [1] (solvent water) was determined as 20.1 nsec. In addition, the “Lifetime (nsec)” value in data set [3] came out at 20.1 nsec. Regarding `CCn1c2ccc(S(=O)(=O)O)cc2c(=O)c2cc3c(cc21)c(=O)c1cc(S(=O)(=O)O)ccc1n3CCCCCC(=O)O` [6-{12-ethyl-7,14-dioxo-2,9-disulpho-7,14-dihydro-12H-quino[2,3-b]acridin-5-yl}hexanoic acid], the Lifetime in data set [1] (solvent water) stood at 22.7 nsec. As for `O=c1c2cc3[nH]c4c(S(=O)(=O)O)cc(S(=O)(=O)O)cc4c(=O)c3cc2[nH]c2c(S(=O)(=O)O)cc(S(=O)(=O)O)cc12` [Quinacridone-2,4,9,11-tetrasulphonic acid (tetra-potassium salt)], the Lifetime in data set [1] (solvent water) amounted to 22.1 nsec. `O=c1c2ccccc2[nH]c2cc3c(=O)c4ccccc4[nH]c3cc12` [Quinacridone] registered a Lifetime in data set [1] (solvent DMSO) of 22 nsec.

The values above are taken from patent publication US7335771B2, “Quinacridone derivatives as labelling reagents for fluorescence detection of biological materials” (GE Healthcare UK Limited, priority 2001, dated 2008).
